Values of other authors in US9491955B2, “Balanced myristate- and laurate-containing edible oil” (Brandeis University, priority 2008, dated 2016).

System: rats
Conditions: trimyristin component of a blend with peanut oil

CCCCCCCCCCCCCC(=O)OCC(COC(=O)CCCCCCCCCCCCC)OC(=O)CCCCCCCCCCCCC [trimyristin]
Decrease of cholesterol-raising capacity by interesterification with GNO: 34%
